Test results from patent US6420385B1, “Substituted pyrimidinone and pyridone compounds and methods of use” (Amgen Inc., priority 1996, dated 2002).

Each compound was assayed on TNF production by monocytes activated with bacterial lipopolysaccharide (LPS) (assay: Lipopolysaccharide-activated monocyte TNF production assay (LPS induced TNF release)). Details: Homo sapiens, Monocyte, TNF in supernatant by ELISA.
Assay type: cell-based, human
Method: Lipopolysaccharide-activated Monocyte TNF Production Assay
Test compounds were evaluated in vitro for the ability to inhibit the production of TNF by monocytes activated with bacterial lipopolysaccharide (LPS). Fresh residual source leukocytes (a byproduct of plateletpheresis) were obtained from a local blood bank, and peripheral blood mononuclear cells (PBMCs) were isolated by density gradient centrifugation on Ficol-Paque Plus (Pharmacia). PBMCs were suspended at 2×10^6/ ml in DMEM supplemented to contain 2% FCS, 10 mM, 0.3 mg/ml glutamate, 100 U/ml penicillin G and […] streptomycin sulfate (complete media). Cells were plated into Falcon flat bottom, 96 well culture plates (200 μl/well) and cultured overnight at 37° C. and 6% CO2. Non-adherent cells were removed by washing with 200 μl/well of fresh medium. Wells containing adherent cells (˜70% monocytes) were replenished with 100 μl of fresh medium.
Preparation of Test Compound Stock Solutions
Test compounds were dissolved in […]. Compound stock solutions were prepared to an initial concentration of […]. Stocks were diluted initially to 20-200 μM in complete media. Nine two-fold serial dilutions of each compound were then prepared in complete medium.
Treatment of Cells with Test Compounds and Activation of TNF Production with Lipopolysaccharide
One hundred microliters of each test compound dilution were added to microtiter wells containing adherent monocytes and 100 μl complete medium. Monocytes were cultured with test compounds for 60 min at which time 25 μl of complete medium containing 30 ng/ml lipopolysaccharide from E. coli K532 were added to each well. Cells were cultured an additional 4 hrs. Culture supernatants were then removed and TNF presence in the supernatants was quantified using an ELISA.
Flat bottom, 96 well Corning High Binding ELISA plates were coated overnight (4° C.) with 150 μL/well of 3 μg/ml murine anti-human TNF-α MAb (R&D Systems #MAB210). Wells were then blocked for 1 hr at room temperature with 200 μL/well of CaCl2-free ELISA buffer supplemented to contain 20 mg/ml BSA (standard ELISA buffer: […], 150 mM NaCl, 2 mM CaCl2, 0.15 mM thimerosal, pH 7.4). Plates were washed and replenished with 100 μl of test supernatants (diluted 1:3) or standards. Standards consisted of eleven 1.5-fold serial dilutions from a stock of 1 ng/ml recombinant human TNF (R&D Systems). Plates were incubated at room temperature for 1 hr on orbital shaker (300 rpm), washed and replenished with 100 μl/well of 0.5 μg/ml goat anti-human TNF-α (R&D systems #AB-210-NA) biotinylated at a 4:1 ratio. Plates were incubated for 40 min, washed and replenished with 100 μl/well of alkaline phosphatase-conjugated streptavidin (Jackson ImmunoResearch #016-050-084) at 0.02 μg/ml. Plates were incubated 30 min, washed and replenished with 200 μl/well of 1 mg/ml of p-nitrophenyl phosphate. After 30 min, plates were read at […] on a Vmax plate reader.
Standard curve data were fit to a second order polynomial and unknown TNF-α concentrations determined from their OD by solving this equation for concentration. TNF concentrations were then plotted vs. test compound concentration using a second order polynomial. This equation was then used to calculate the concentration of test compounds causing a 50% reduction in TNF production.
For `Cc1ccc(-c2cc(-c3ccncc3)c(-c3ccccc3)c(=O)[nH]2)cc1` [6-(4-Methylphenyl)-3-phenyl-4-(4-pyridyl)-2(1H)-pyridone], the IC50 was ≤ 20 µM. For `Cc1ccc(-c2cc(-c3ccncc3)c(-c3ccccc3)c(=O)[nH]2)c(C)c1` [6-(2,4-Dimethylphenyl)-3-phenyl-4-(4-pyridyl)-2(1H)-pyridone], the IC50 was ≤ 20 µM. In the case of `O=c1[nH]c(-c2cccs2)cc(-c2ccncc2)c1-c1ccccc1` [3-Phenyl-4-(4-pyridyl)-6-(2-thienyl)-2(1H)-pyridone], the IC50 is reported as ≤ 20 µM. With `O=c1[nH]c(-c2ccccc2)cc(-c2ccncc2)c1-c1ccccc1` [3,6-Diphenyl-4-(4-pyridyl)-2(1H)-pyridone] the IC50 was ≤ 20 µM. For `O=c1[nH]c(-c2ccco2)cc(-c2ccncc2)c1-c1ccccc1` [6-(2-Furyl)-3-phenyl-4-(4-pyridyl)-2(1H)-pyridone], the IC50 was ≤ 20 µM.

Same assay, conditions: TNF in supernatant by ELISA
In the case of `Cn1c(NCCC(N)c2ccccc2)nc(-c2ccncc2)c(-c2cccc(C(F)(F)F)c2)c1=O` (stereo not shown) [2-((3-Amino-3-phenylpropyl)-amino)-3-methyl-6-(4-pyridyl)5-(3-trifluoromethylphenyl)-4-(3H)-pyrimidinone], the IC50 is reported as ≤ 5 µM. For `Cc1ccccc1C(N)CCNc1nc(-c2ccncc2)c(-c2cccc(C(F)(F)F)c2)c(=O)n1C` (stereo not shown) [2-((3-Amino-3-(2-methylphenyl)propyl)-amino)-3-methyl-6-(4-pyridyl)5-(3-trifluoromethylphenyl)-4-(3H)-pyrimidinone], the IC50 was ≤ 5 µM.
